Assay results: patent US7449492B2, “Therapeutic agents—I” (priority 2000, dated 2008)

Key:
[1] = system: peripheral blood mononuclear cells (PBMCs); assay: Phagocytosis with fluorescent beads; assay type: cell-based; conditions: whole heparinized blood, 30 min at 37° C.
Description: Phagocytosis by peripheral blood mononuclear cells (PBMCs) was assayed (Steinkamp et al., 1982) using 1 μm Fluoresbrite™ yellow-green fluorescent latex spheres (Polysciences, Inc., Warrington, Pa.). A sample of whole, heparinized blood was treated with drug and 5×10E7 fluorescent latex beads in 10 μL of PBS added per mL of suspension. Cells were incubated and maintained in suspension for 30 min by means of a shaker platform at 37° C. The stimulated and non-stimulated samples were then lysed to isolate PBMCs. The PBMCs were run on the flow cytometer measuring FITC (excitation at 488 nm, emission at 525±20 nm), gated for fluorescence (phagocytosed spheres) and light scatter (cell size).

[2] = system: MM96L human melanoma cells; assay: Leukocyte killing with drug present, [3H]-thymidine labelling; assay type: cell-based; conditions: 60 ng/mL with leukocytes, 48 hr; 100:1 ratio of effector:target cells
Description: (§1) Leukocytes obtained by lysis of human peripheral blood were added to 5000 MM96L human melanoma cells or 7000 neonatal foreskin fibroblasts per microtitre well at effector: target ratios of 1000, 100 and 10:1. Ing9 (60 ng/mL) was added and after 48 hr incubation the cultures were washed and labelled with [3H]-thymidine for 2 hr. […] Untreated leukocytes had no effect on cell survival.

[3] = system: neonatal foreskin fibroblasts; assay: as above; assay type: cell-based, human; conditions: 60 ng/mL with leukocytes, 48 hr; 100:1 ratio of effector:target cells
Description: as §1

[4] = system: MM96L human melanoma cells; assay: Killing by untreated leukocytes of drug-pretreated target cells; assay type: cell-based; conditions: target cells treated with 60 ng/mL for 20 hr and washed before leukocytes; 100:1 ratio of effector:target cells
Description: as §1, with “The target cells had been treated with 60 ng/mL PEP008 for 20 hr beforehand,” for “Ing9 (60 ng/mL) was added”, “washed and the medium replaced before the leukocytes were added. After” for “after”, “incubation with the leukocytes” for “incubation”

[5] = system: neonatal foreskin fibroblasts; assay: as above; assay type: cell-based, human; conditions: target cells treated with 60 ng/mL for 20 hr and washed before leukocytes; 100:1 ratio of effector:target cells
Description: as §1, with “The target cells had been treated with 60 ng/mL PEP008 for 20 hr beforehand,” for “Ing9 (60 ng/mL) was added”, “washed and the medium replaced before the leukocytes were added. After” for “after”, “incubation with the leukocytes” for “incubation”

Structure (SMILES): C/C=C(/C)C(=O)O[C@H]1C(C)=C[C@]23C(=O)[C@@H](C=C(COC(C)=O)[C@@H](O)[C@]12O)[C@H]1[C@@H](C[C@H]3C)C1(C)C [PEP008, 20-O-acetyl-ingenol-3-angelate]
- phagocytosis of fluorescent latex spheres in PBMCs [1]: stimulate phagocytosis
- survival of melanoma cells [2]: 9%
- survival of normal fibroblasts [3]: 100%
- survival of melanoma cells [4]: 12%
- survival of normal fibroblasts [5]: 100%
